For data set [1], the system named is Trypanosoma cruzi. Description: microbe, parasite or virus in culture. Format: functional, organism-based, Tulahuen LacZ, Clone C4. To be noted: Trypanosoma cruzi, Tulahuen LacZ, Clone C4.
The nature of data set [2]: DNDI: Cytotoxicity against L-6 rat myoblasts from skeletal muscle cells. As to conditions: L6 rat skeletal muscle myoblast cells, IC50.
The test system of data set [3] is Trypanosoma cruzi. Description: microbe, parasite or virus in culture. To be noted: Trypanosoma cruzi, Tulahuen LacZ, Clone C4. The data set is classed as functional, Tulahuen LacZ, Clone C4.

A word on the IC50: it is the concentration that gives 50% inhibition. A low value points to greater potency in that assay. The term IC90 denotes the concentration needed for an effect of 90%. Higher therefore signals a need for much substance.

Turning to `CC(C)CS(=O)(=O)N1CCC(NC(c2ccc(C(F)(F)F)cc2)c2cnccn2)CC1` (configuration not stated), the IC50 in data set [1] is 0.33 µM; in data set [2] it was more than 100 µM. In addition, the IC90 in data set [3] came to 0.88 µM.
Taken in the same sequence, the figures for `O=S(=O)(NC1CCN(C(c2ccc(C(F)(F)F)cc2)c2cnccn2)CC1)c1ccccc1` (configuration not stated) were 0.26 µM, 55.9 µM and 0.9 µM.
The corresponding values for `O=S(=O)(NC(c1ccc(C(F)(F)F)cc1)c1cnccn1)c1ccccc1` (configuration not stated) are 3.65 µM, more than 100 µM and 7.67 µM.
The corresponding values for `CS(=O)(=O)N1CCC(CNC(c2ccc(C(F)(F)F)cc2)c2cnccn2)CC1` (configuration not stated) are 0.45 µM, more than 100 µM and 0.94 µM.
As to `CC(C)CC(=O)NC(c1ccc(C(F)(F)F)cc1)c1cnccn1` (configuration not stated), the IC50 in data set [1] was 8.91 µM; in data set [2], more than 100 µM. The same compound registered an IC90 in data set [3] of more than 10 µM.
The corresponding values for `CC(=O)NC1CCN(C(c2ccc(C(F)(F)F)cc2)c2cnccn2)CC1` (configuration not stated) are 1.44 µM, more than 100 µM and 3.17 µM.
Taken in the same sequence, the figures for `O=C(NC1CCN(C(c2ccc(C(F)(F)F)cc2)c2cnccn2)CC1)c1ccccc1` (configuration not stated) were 0.2 µM, more than 100 µM and 0.72 µM.
The corresponding values for `O=C(c1ccccc1)N1CCC(NC(c2ccc(C(F)(F)F)cc2)c2cnccn2)CC1` (configuration not stated) are 0.32 µM, more than 100 µM and 0.91 µM.
`O=S(=O)(Cc1ccccc1)N1CCC(NC(c2ccc(C(F)(F)F)cc2)c2cnccn2)CC1` (configuration not stated): the IC50 in data set [1] was 0.21 µM; in data set [2], more than 100 µM. The compound also yielded a concentration for an effect of 90% (IC90) in data set [3] of 0.77 µM.
Taken in the same sequence, the figures for `O=C(NC(c1ccc(C(F)(F)F)cc1)c1cnccn1)c1ccc(C(F)(F)F)cc1` (configuration not stated) were 0.59 µM, 61.2 µM and more than 1 µM.
The corresponding values for `O=S(=O)(c1ccccc1)N1CCN(C(c2ccc(Cl)cc2)c2cncnc2)CC1` (configuration not stated) are 0.066 µM, more than 76.1 µM and 0.32 µM.
Turning to `O=C(C1CCCCC1)N1CCC(NC(c2ccc(C(F)(F)F)cc2)c2cnccn2)CC1` (configuration not stated), the IC50 in data set [1] is 0.2 µM; in data set [2] it was 83.8 µM. In data set [3], the IC90 worked out at 0.54 µM.
The corresponding values for `CS(=O)(=O)NC1CCN(C(c2ccc(C(F)(F)F)cc2)c2cnccn2)CC1` (configuration not stated) are 1.22 µM, more than 100 µM and 3.02 µM.
Taken in the same sequence, the figures for `CON=C(c1ccc(C(F)(F)F)cc1)c1cccnc1` were more than 1 µM, 70.3 µM and more than 1 µM.
Taken in the same sequence, the figures for `O=C(NC1CCN(C(c2ccc(C(F)(F)F)cc2)c2cnccn2)CC1)C1CCCCC1` (configuration not stated) were 0.25 µM, more than 100 µM and 0.87 µM.
In the case of `CC(C)CC(=O)N1CCC(NC(c2ccc(C(F)(F)F)cc2)c2cnccn2)CC1` (configuration not stated), the IC50 in data set [1] is 0.27 µM; in data set [2] it was more than 100 µM. The IC90 in data set [3] was determined as 0.66 µM.
The corresponding values for `CS(=O)(=O)N1CCC(NC(c2ccc(C(F)(F)F)cc2)c2cnccn2)CC1` (configuration not stated) are 0.97 µM, more than 100 µM and 2.76 µM.
The corresponding values for `CC(C)S(=O)(=O)NC(c1ccc(C(F)(F)F)cc1)c1cnccn1` (configuration not stated) are more than 1 µM, more than 100 µM and more than 1 µM.
The corresponding values for `O=S(=O)(NC(c1ccc(C(F)(F)F)cc1)c1cnccn1)c1ccc(Cl)cc1` (configuration not stated) are more than 1 µM, 56.4 µM and more than 1 µM.
Take `CC(C)(C)OC(=O)N1CCN(C(c2ccc(Cl)cc2)c2cccnc2)CC1` (configuration not stated): the IC50 in data set [1] was 0.027 µM; in data set [2] it was 47.8 µM. The compound further yielded an IC90 in data set [3] of 0.068 µM.
Taken in the same sequence, the figures for `O=C(Cc1ccccc1)NC(c1ccc(C(F)(F)F)cc1)c1cnccn1` (configuration not stated) were more than 1 µM, more than 100 µM and more than 1 µM.
Consider `O=C(C1CC1)N1CCC(NC(c2ccc(C(F)(F)F)cc2)c2cnccn2)CC1` (configuration not stated), for which the figures for the IC50 in data set [1] and in data set [2] were 0.47 µM and more than 100 µM, respectively. The same compound returned an IC90 in data set [3] of 0.85 µM.
Taken in the same sequence, the figures for `CS(=O)(=O)NC(c1ccc(C(F)(F)F)cc1)c1cnccn1` (configuration not stated) were more than 10 µM, more than 100 µM and more than 10 µM.
Take `O=S(=O)(NC(c1ccc(C(F)(F)F)cc1)c1cnccn1)C1CCCCC1` (configuration not stated): the IC50 is more than 1 µM in data set [1] and 85 µM in data set [2]. The same compound came in with an IC90 in data set [3] of more than 1 µM.
As to `O=S(=O)(C1CCCCC1)N1CCC(NC(c2ccc(C(F)(F)F)cc2)c2cnccn2)CC1` (configuration not stated), the IC50 in data set [1] amounted to 0.57 µM; in data set [2], 62.6 µM. The compound further gave an IC90 in data set [3] of 0.97 µM.
`CC(C)(C)OC(=O)N1CCN(C(c2ccc(Cl)cc2)c2cncnc2)CC1` (configuration not stated): the figures for the IC50 in data set [1] and in data set [2] were 0.13 µM and more than 100 µM, respectively. Further, the concentration for an effect of 90% (IC90) in data set [3] amounted to 0.28 µM.
The corresponding values for `CCS(=O)(=O)NC(c1ccc(C(F)(F)F)cc1)c1cnccn1` (configuration not stated) are more than 1 µM, more than 100 µM and more than 1 µM.
The corresponding values for `O=C(NC(c1ccc(C(F)(F)F)cc1)c1cnccn1)c1ccc(Cl)cc1` (configuration not stated) are 0.86 µM, 61.8 µM and more than 1 µM.
Taken in the same sequence, the figures for `CC(C)c1ccc(S(=O)(=O)NC(c2ccc(C(F)(F)F)cc2)c2cnccn2)cc1` (configuration not stated) were more than 1 µM, 60.1 µM and more than 1 µM.
Take `CON=C(c1ccc(C(F)(F)F)cc1)c1cnccn1`: the IC50 in data set [1] is more than 1 µM; in data set [2], more than 100 µM. The compound also returned an IC90 in data set [3] of more than 1 µM.
Consider `CCN1CCC(NC(c2ccc(C(F)(F)F)cc2)c2cnccn2)CC1` (configuration not stated), for which the IC50 in data set [1] is more than 1 µM; in data set [2] it was more than 100 µM. In data set [3], the IC90 was more than 1 µM.
`CC(C)(C)OC(=O)N1CCC(CNC(c2ccc(C(F)(F)F)cc2)c2cnccn2)CC1` (configuration not stated): the figures for the IC50 in data set [1] and in data set [2] were 0.076 µM and 73.3 µM, respectively. It took 0.26 µM to reach the 90% level in data set [3] (IC90).
In the case of `CC(C)(C)OC(=O)N1CCC(NC(c2ccc(C(F)(F)F)cc2)c2cnccn2)CC1` (configuration not stated), the IC50 stood at 0.058 µM in data set [1] and 62.8 µM in data set [2]. The same compound came in with an IC90 in data set [3] of 0.14 µM.
The corresponding values for `O=S(=O)(Cc1ccccc1)NC(c1ccc(C(F)(F)F)cc1)c1cnccn1` (configuration not stated) are more than 1 µM, more than 100 µM and more than 1 µM.
For `CN(C)C(=O)NC(c1ccc(C(F)(F)F)cc1)c1cnccn1` (configuration not stated), the IC50 in data set [1] is more than 1 µM; in data set [2] it was more than 100 µM. The compound further had an IC90 in data set [3] of more than 1 µM.
Regarding `O=S(=O)(NC(c1ccc(C(F)(F)F)cc1)c1cnccn1)c1ccc(C(F)(F)F)cc1` (configuration not stated), the IC50 in data set [1] is more than 1 µM; in data set [2], 59.9 µM. Further, the IC90 in data set [3] is more than 1 µM.
In the case of `CN(C)C(=O)c1cccc(C(O)(c2ccc(Cl)cc2)c2cccnc2)c1` (configuration not stated), the results for the IC50 in data set [1] and in data set [2] were 0.18 µM and more than 100 µM, respectively. The compound also yielded an IC90 in data set [3] of 0.41 µM.
The corresponding values for `CC(C)(C)OC(=O)NC1CCN(C(c2ccc(C(F)(F)F)cc2)c2cnccn2)CC1` (configuration not stated) are 0.16 µM, 56.7 µM and 0.4 µM.
The corresponding values for `O=S(=O)(c1ccccc1)N1CCC(NC(c2ccc(C(F)(F)F)cc2)c2cnccn2)CC1` (configuration not stated) are 0.17 µM, more than 100 µM and 0.32 µM.
The corresponding values for `O=C(Cc1ccccc1)N1CCC(NC(c2ccc(C(F)(F)F)cc2)c2cnccn2)CC1` (configuration not stated) are 0.54 µM, 70.5 µM and 0.95 µM.
With `O=S(=O)(c1ccc(Cl)cc1)N1CCC(NC(c2ccc(C(F)(F)F)cc2)c2cnccn2)CC1` (configuration not stated), the half-inhibitory concentration (IC50) in data set [1] was 0.33 µM; in data set [2], more than 100 µM. Moreover, in data set [3], the 90% effect level (IC90) was put at 0.91 µM.
Taken in the same sequence, the figures for `O=C(NC(c1ccc(C(F)(F)F)cc1)c1cnccn1)c1ccccc1` (configuration not stated) were more than 1 µM, more than 100 µM and more than 1 µM.
Consider `CC(C)CS(=O)(=O)NC1CCN(C(c2ccc(C(F)(F)F)cc2)c2cnccn2)CC1` (configuration not stated), for which the IC50 in data set [1] was 0.55 µM; in data set [2], 62.3 µM. Also, the 90% effect level in data set [3] (IC90) was put at 0.88 µM.
The corresponding values for `CC(=O)N1CCC(NC(c2ccc(C(F)(F)F)cc2)c2cnccn2)CC1` (configuration not stated) are 3.05 µM, more than 100 µM and 7.81 µM.
The corresponding values for `CC(C)C(=O)NC(c1ccc(C(F)(F)F)cc1)c1cnccn1` (configuration not stated) are more than 10 µM, more than 100 µM and more than 10 µM.
Take `CCN(CC)C(=O)c1cccc(C(O)(c2ccc(Cl)cc2)c2cccnc2)c1` (configuration not stated): the IC50 in data set [1] is 0.15 µM; in data set [2], more than 100 µM. In addition, in data set [3], the concentration for an effect of 90% (IC90) is 0.28 µM.
Take `CC(C)C(=O)N1CCN(C(c2ccc(Cl)cc2)c2cncnc2)CC1` (configuration not stated): the values for the IC50 in data set [1] and in data set [2] were 0.37 µM and more than 100 µM, respectively. In addition, the 90% effect level in data set [3] (IC90) was put at 0.94 µM.
The corresponding values for `OC(c1cccnc1)c1ccc(Cl)cc1F` (configuration not stated) are more than 1 µM, more than 100 µM and more than 1 µM.
Taken in the same sequence, the figures for `CC(C)CS(=O)(=O)NC(c1ccc(C(F)(F)F)cc1)c1cnccn1` (configuration not stated) were more than 1 µM, more than 100 µM and more than 1 µM.
The corresponding values for `O=C(NC(c1ccc(C(F)(F)F)cc1)c1cnccn1)C1CC1` (configuration not stated) are more than 10 µM, more than 100 µM and more than 10 µM.
With `O=C(NC(c1ccc(C(F)(F)F)cc1)c1cnccn1)C1CCCCC1` (configuration not stated), the half-inhibitory concentration (IC50) was 1.57 µM in data set [1] and more than 100 µM in data set [2]. In data set [3], this compound came in with an IC90 of 4.79 µM.
The corresponding values for `CCS(=O)(=O)N1CCN(C(c2ccc(Cl)cc2)c2cncnc2)CC1` (configuration not stated) are 0.26 µM, more than 100 µM and 0.85 µM.
Taken in the same sequence, the figures for `CCC(=O)NC(c1ccc(C(F)(F)F)cc1)c1cnccn1` (configuration not stated) were more than 1 µM, more than 100 µM and more than 1 µM.
Taken in the same sequence, the figures for `CC(=O)NC(c1ccc(C(F)(F)F)cc1)c1cnccn1` (configuration not stated) were more than 10 µM, more than 100 µM and more than 10 µM.

The values are drawn from ChEMBL document CHEMBL1862790, “Optimisation of fenarimol series for the treatment of Chagas disease”.
